Laboratory results: the supplement of paper PMC10307832

Compound: NCC(=O)Nc1ccc(-n2nc(C(F)(F)F)cc2-c2ccc3c(ccc4ccccc43)c2)cc1 + CC(C)C[C@H](NC(=O)[C@H](Cc1ccccc1)NC(=O)c1cnccn1)B(O)O [Bortezomib] (partner 0.002 µM)
Test: relative viability (nuclei count vs DMSO), 5 days (fraction); higher = more cells survive
Conditions: first compound 0.02 µM
In short: (§1)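 The day after seeding in 1536-well plates, lung cancer cell lines were treated by pin tool with a single drug, or with a fixed anchor-drug dose together with five library-drug doses (not always all listed) in √10 steps. After 5 days, a combined fix-and-stain solution (final 0.05% Triton X-100, 1% formaldehyde, 1 ug/ml Hoechst) was added. Nuclei counted on 4× images gave relative viability as treated counts over vehicle counts, reported as the median of duplicate plates.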

| Cell Line | relative viability |
| --- | --- |
| NCI-H441 | 0.931 |
| NCI-H661 | 0.785 |
| NCI-H1734 | 1.1 |
| NCI-H460 | 1.21 |
| NCI-H2347 | 0.956 |
| SK-LU-1 | 1.07 |
| 201T | 1.04 |
| NCI-H1915 | 0.889 |
| HCC-827 | 1.02 |
| LXF-289 | 1.05 |
| NCI-H23 | 0.908 |
| NCI-H647 | 1.14 |
| CAL-12T | 0.899 |
| NCI-H1651 | 0.961 |
| EPLC-272H | 0.806 |
| NCI-H2228 | 0.749 |

| Cell Line | relative viability |
| --- | --- |
| NCI-H1792 | 1.02 |
| NCI-H1355 | 1.22 |
| NCI-H3122 | 1.02 |
| NCI-H1437 | 0.531 |
| NCI-H1755 | 0.892 |
| NCI-H2023 | 0.993 |
| HCC-15 | 1.07 |
| PC-14 | 0.966 |
| EKVX | 1.05 |
| LC-2-ad | 1.1 |
| NCI-H1563 | 0.77 |
| NCI-H1975 | 0.37 |
| RERF-LC-KJ | 1.11 |
| ABC-1 | 0.306 |
| NCI-H650 | 0.663 |
| PC-3 [JPC-3] | 0.763 |

Same assay, conditions: first compound 0.06325 µM

| Cell Line | relative viability |
| --- | --- |
| NCI-H441 | 0.481 |
| NCI-H661 | 0.853 |
| NCI-H1734 | 0.957 |
| NCI-H460 | 1.11 |
| NCI-H2347 | 1.18 |
| SK-LU-1 | 1.22 |
| 201T | 1.18 |
| NCI-H1915 | 1.01 |
| HCC-827 | 1.12 |
| LXF-289 | 1.1 |
| NCI-H23 | 1.11 |
| NCI-H647 | 1.18 |
| CAL-12T | 1.09 |
| NCI-H1651 | 0.919 |
| EPLC-272H | 0.873 |
| NCI-H2228 | 0.935 |

| Cell Line | relative viability |
| --- | --- |
| NCI-H1792 | 0.974 |
| NCI-H1355 | 1.28 |
| NCI-H3122 | 1.02 |
| NCI-H1437 | 0.422 |
| NCI-H1755 | 0.935 |
| NCI-H2023 | 1.13 |
| HCC-15 | 1.06 |
| PC-14 | 0.822 |
| EKVX | 1.09 |
| LC-2-ad | 1.03 |
| NCI-H1563 | 0.962 |
| NCI-H1975 | 0.414 |
| RERF-LC-KJ | 1.19 |
| ABC-1 | 0.321 |
| NCI-H650 | 1.02 |
| PC-3 [JPC-3] | 0.853 |

Same assay, conditions: first compound 0.2 µM

| Cell Line | relative viability |
| --- | --- |
| NCI-H441 | 0.308 |
| NCI-H661 | 0.737 |
| NCI-H1734 | 0.886 |
| NCI-H460 | 1.07 |
| NCI-H2347 | 1.02 |
| SK-LU-1 | 1.23 |
| 201T | 1.03 |
| NCI-H1915 | 0.964 |
| HCC-827 | 1.04 |
| LXF-289 | 0.966 |
| NCI-H23 | 1.1 |
| NCI-H647 | 1.09 |
| CAL-12T | 0.967 |
| NCI-H1651 | 0.977 |
| EPLC-272H | 0.868 |
| NCI-H2228 | 1.01 |

| Cell Line | relative viability |
| --- | --- |
| NCI-H1792 | 0.932 |
| NCI-H1355 | 1.15 |
| NCI-H3122 | 0.984 |
| NCI-H1437 | 0.536 |
| NCI-H1755 | 0.958 |
| NCI-H2023 | 0.724 |
| HCC-15 | 1.06 |
| PC-14 | 1.06 |
| EKVX | 1.16 |
| LC-2-ad | 0.997 |
| NCI-H1563 | 0.69 |
| NCI-H1975 | 0.44 |
| RERF-LC-KJ | 1.15 |
| NCI-H650 | 0.931 |
| PC-3 [JPC-3] | 0.8 |

Same assay, conditions: first compound 0.6325 µM

| Cell Line | relative viability |
| --- | --- |
| NCI-H441 | 0.409 |
| NCI-H661 | 0.784 |
| NCI-H1734 | 1.02 |
| NCI-H460 | 1.03 |
| NCI-H2347 | 1.12 |
| SK-LU-1 | 1.07 |
| 201T | 1.17 |
| NCI-H1915 | 0.932 |
| HCC-827 | 1 |
| LXF-289 | 1.02 |
| NCI-H23 | 1.02 |
| NCI-H647 | 1.04 |
| CAL-12T | 0.931 |
| NCI-H1651 | 0.909 |
| EPLC-272H | 0.943 |
| NCI-H2228 | 1.38 |

| Cell Line | relative viability |
| --- | --- |
| NCI-H1792 | 0.946 |
| NCI-H1355 | 1.19 |
| NCI-H3122 | 1 |
| NCI-H1437 | 0.487 |
| NCI-H1755 | 0.946 |
| NCI-H2023 | 0.932 |
| HCC-15 | 1.01 |
| PC-14 | 0.895 |
| EKVX | 1.02 |
| LC-2-ad | 0.912 |
| NCI-H1563 | 0.925 |
| NCI-H1975 | 0.345 |
| RERF-LC-KJ | 1.26 |
| ABC-1 | 0.226 |
| NCI-H650 | 0.677 |
| PC-3 [JPC-3] | 0.816 |

Same assay, conditions: first compound 2 µM

| Cell Line | relative viability |
| --- | --- |
| NCI-H441 | 0.361 |
| NCI-H661 | 0.762 |
| NCI-H1734 | 0.891 |
| NCI-H460 | 1.07 |
| NCI-H2347 | 0.945 |
| SK-LU-1 | 1.31 |
| 201T | 1.09 |
| NCI-H1915 | 1.03 |
| HCC-827 | 1.15 |
| LXF-289 | 1.01 |
| NCI-H23 | 1.12 |
| NCI-H647 | 0.99 |
| CAL-12T | 1.11 |
| NCI-H1651 | 0.985 |
| EPLC-272H | 1.14 |
| NCI-H2228 | 0.914 |

| Cell Line | relative viability |
| --- | --- |
| NCI-H1792 | 0.966 |
| NCI-H1355 | 1.29 |
| NCI-H3122 | 1.05 |
| NCI-H1437 | 0.499 |
| NCI-H1755 | 0.978 |
| NCI-H2023 | 0.904 |
| HCC-15 | 0.996 |
| PC-14 | 0.858 |
| EKVX | 0.984 |
| LC-2-ad | 1.12 |
| NCI-H1563 | 0.928 |
| NCI-H1975 | 0.426 |
| RERF-LC-KJ | 1.14 |
| ABC-1 | 0.267 |
| NCI-H650 | 0.907 |
| PC-3 [JPC-3] | 0.929 |

Compound: C1CSC2=C(C(=O)N1)SC3=C2C=C(C=C3)O [kb NB 142-70] + COc1cccc2cc(-c3nc([C@H]4CC[C@H](C(=O)O)CC4)n4ncnc(N)c34)[nH]c12 [OSI-027] (partner 0.5 µM)
Test: as above
Conditions: first compound 0.1 µM
In short: as §1

| Cell Line | relative viability |
| --- | --- |
| NCI-H441 | 0.556 |
| NCI-H661 | 0.723 |
| NCI-H1734 | 0.584 |
| NCI-H460 | 0.677 |
| NCI-H2347 | 0.461 |
| SK-LU-1 | 0.355 |
| 201T | 0.723 |
| NCI-H1915 | 0.648 |
| HCC-827 | 0.775 |
| LXF-289 | 0.737 |
| NCI-H23 | 0.632 |
| NCI-H647 | 0.575 |
| CAL-12T | 0.857 |
| NCI-H1651 | 0.725 |
| EPLC-272H | 0.278 |
| NCI-H2228 | 0.575 |

| Cell Line | relative viability |
| --- | --- |
| NCI-H1792 | 0.705 |
| NCI-H1355 | 0.44 |
| NCI-H3122 | 0.922 |
| NCI-H1437 | 0.908 |
| NCI-H1755 | 0.741 |
| NCI-H2023 | 0.485 |
| HCC-15 | 0.698 |
| PC-14 | 0.754 |
| EKVX | 0.707 |
| LC-2-ad | 0.779 |
| NCI-H1563 | 0.773 |
| NCI-H1975 | 0.808 |
| RERF-LC-KJ | 0.566 |
| ABC-1 | 0.481 |
| NCI-H650 | 0.535 |
| PC-3 [JPC-3] | 0.763 |

Same assay, conditions: first compound 1 µM

| Cell Line | relative viability |
| --- | --- |
| NCI-H441 | 0.58 |
| NCI-H661 | 0.717 |
| NCI-H1734 | 0.509 |
| NCI-H460 | 0.576 |
| NCI-H2347 | 0.416 |
| SK-LU-1 | 0.305 |
| 201T | 0.714 |
| NCI-H1915 | 0.619 |
| HCC-827 | 0.759 |
| LXF-289 | 0.695 |
| NCI-H23 | 0.572 |
| NCI-H647 | 0.568 |
| CAL-12T | 0.719 |
| NCI-H1651 | 0.657 |
| EPLC-272H | 0.243 |
| NCI-H2228 | 0.483 |

| Cell Line | relative viability |
| --- | --- |
| NCI-H1792 | 0.684 |
| NCI-H1355 | 0.38 |
| NCI-H3122 | 0.919 |
| NCI-H1437 | 0.968 |
| NCI-H1755 | 0.722 |
| NCI-H2023 | 0.417 |
| HCC-15 | 0.703 |
| PC-14 | 0.962 |
| EKVX | 0.675 |
| LC-2-ad | 0.842 |
| NCI-H1563 | 0.739 |
| NCI-H1975 | 0.741 |
| RERF-LC-KJ | 0.643 |
| ABC-1 | 0.506 |
| NCI-H650 | 0.519 |
| PC-3 [JPC-3] | 0.835 |

Same assay, conditions: first compound 3.162 µM

| Cell Line | relative viability |
| --- | --- |
| NCI-H441 | 0.277 |
| NCI-H661 | 0.61 |
| NCI-H1734 | 0.396 |
| NCI-H460 | 0.315 |
| NCI-H2347 | 0.384 |
| SK-LU-1 | 0.219 |
| 201T | 0.653 |
| NCI-H1915 | 0.396 |
| HCC-827 | 0.775 |
| LXF-289 | 0.681 |
| NCI-H23 | 0.412 |
| NCI-H647 | 0.601 |
| CAL-12T | 0.444 |
| NCI-H1651 | 0.471 |
| EPLC-272H | 0.187 |
| NCI-H2228 | 0.317 |

| Cell Line | relative viability |
| --- | --- |
| NCI-H1792 | 0.912 |
| NCI-H1355 | 0.378 |
| NCI-H3122 | 0.726 |
| NCI-H1437 | 0.921 |
| NCI-H1755 | 0.737 |
| NCI-H2023 | 0.258 |
| HCC-15 | 0.516 |
| PC-14 | 0.609 |
| EKVX | 0.788 |
| LC-2-ad | 0.699 |
| NCI-H1563 | 0.752 |
| NCI-H1975 | 0.597 |
| RERF-LC-KJ | 0.593 |
| ABC-1 | 0.346 |
| NCI-H650 | 0.52 |
| PC-3 [JPC-3] | 0.737 |
